Source: ChEMBL document CHEMBL6182913, “Design of Potent Small-Molecule Stimulator of Interferon Gene Inhibitor and Stimulator of Interferon Gene Mutant-Specific Degrader” (J Med Chem, 2025)
Active and inactive are the calls of the source. The calls are words filed in the database; no cut-off is given here.

Experiments:
[1] = system: Stimulator of interferon genes protein (Homo sapiens), Q86WV6 [UNDEFINED MUTATION]; assay: Induction of STING M155 mutant degradation in human THP-1 cells by measuring maximum efficacy at 0.01 to 10 uM incubated for 24 hrs by Western blotting analysis relative to control; type: cell-based; conditions: dose 0.01-10 µM
[2] = molecular target: T1, Stimulator of interferon genes protein (Homo sapiens, UniProt Q86WV6); assay: Induction of STING S154 mutant degradation in human THP-1 cells incubated for 24 hrs by Western blotting analysis; type: cell-based
Target sequence in this assay (Q86WV6 whole entry, looked up, change not shown): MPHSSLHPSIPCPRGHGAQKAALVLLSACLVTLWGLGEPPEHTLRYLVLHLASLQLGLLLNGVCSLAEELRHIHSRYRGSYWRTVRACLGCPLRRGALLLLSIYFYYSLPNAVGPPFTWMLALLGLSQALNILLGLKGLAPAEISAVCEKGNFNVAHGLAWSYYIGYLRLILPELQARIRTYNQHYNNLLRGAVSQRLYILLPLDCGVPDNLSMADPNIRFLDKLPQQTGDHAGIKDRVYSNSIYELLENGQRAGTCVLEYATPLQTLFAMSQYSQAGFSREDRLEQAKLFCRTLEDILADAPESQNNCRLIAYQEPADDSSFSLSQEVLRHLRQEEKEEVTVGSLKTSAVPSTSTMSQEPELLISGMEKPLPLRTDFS

[3] = molecular target: T1, Stimulator of interferon genes protein; assay: Inhibition of STING activation in human THP1-Blue ISG cells assessed as decrease in cGAMP-induced STING phosphorylation at 0.1 to 1 uM preincubated with compound for 6 hrs followed by cGAMP addition and measured after 3 hrs by Western blotting analysis; type: cell-based; conditions: dose 0.1-1 µM, time 9.0 hrs
Target sequence in this assay (Q86WV6 whole entry): as the sequence (Q86WV6 whole entry, looked up, change not shown) above

[4] = system: Stimulator of interferon genes protein (Homo sapiens), Q86WV6 [UNDEFINED MUTATION]; assay: Induction of STING M155 mutant degradation in human THP-1 cells at 0.5 uM preincubated with rapamycin for 2 hrs followed by compound addition and measured after 14 hrs by Western blotting analysis; type: cell-based
[5] = system: Stimulator of interferon genes protein (Homo sapiens), Q86WV6 [UNDEFINED MUTATION]; assay: Induction of STING S154 mutant degradation in human THP-1 cells at 1 uM incubated for 48 hrs by Western blotting analysis; type: cell-based
[6] = Metabolic stability in mouse liver microsomes assessed as half life at 10 uM in presence of NADPH by LC-MS/MS analysis; type: ADME, Microsome
[7] = molecular target: T1, Stimulator of interferon genes protein; assay: Inhibition of cGAMP-induced STING R232 mutant transfected human THP-1 cells preincubated with compound for 6 hrs followed by cGAMP addition and measured after 18 hrs by QUANTI-Luc based microplate reader analysis; type: cell-based
Target sequence in this assay (Q86WV6 whole entry, looked up, change not shown): as above

[8] = molecular target: T2, Stimulator of interferon genes protein (Mus musculus, UniProt Q3TBT3); assay: Inhibition of cGAMP-induced mouse STING transfected in human THP-1 cells preincubated with compound for 6 hrs followed by cGAMP addition and measured after 18 hrs by QUANTI-Luc based microplate reader analysis; type: cell-based
T2 sequence (Q3TBT3 whole entry): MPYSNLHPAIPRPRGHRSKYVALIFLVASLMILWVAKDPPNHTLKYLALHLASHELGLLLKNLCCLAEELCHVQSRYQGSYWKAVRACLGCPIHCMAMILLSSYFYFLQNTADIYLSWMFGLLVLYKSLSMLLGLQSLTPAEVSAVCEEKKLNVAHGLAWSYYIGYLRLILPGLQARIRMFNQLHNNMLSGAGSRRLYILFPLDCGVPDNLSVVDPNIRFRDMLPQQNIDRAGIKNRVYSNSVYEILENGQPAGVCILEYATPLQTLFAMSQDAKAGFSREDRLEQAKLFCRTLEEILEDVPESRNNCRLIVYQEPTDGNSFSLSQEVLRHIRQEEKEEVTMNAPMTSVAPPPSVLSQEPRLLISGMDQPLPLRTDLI

[9] = system: Stimulator of interferon genes protein (Homo sapiens), Q86WV6 [UNDEFINED MUTATION]; assay: Induction of STING M155 mutant degradation in human THP-1 cells at 1 uM incubated for 12 hrs by Western blotting analysis; type: cell-based
[10] = molecular target: T1, Stimulator of interferon genes protein; assay: Inhibition of STING activation in human THP1-Blue ISG cells assessed as reduction in STING dimer level at 0.1 to 1 uM incubated for 9 hrs by Western blotting analysis; type: cell-based; conditions: dose 0.1-1 µM
Target sequence in this assay (Q86WV6 whole entry): as the sequence (Q86WV6 whole entry, looked up, change not shown) above

[11] = system: Stimulator of interferon genes protein (Homo sapiens), Q86WV6 [UNDEFINED MUTATION]; assay: Induction of STING M155 mutant degradation in human THP-1 cells at 1 uM incubated for 48 hrs by Western blotting analysis; type: cell-based
[12] = system: Stimulator of interferon genes protein (Homo sapiens), Q86WV6 [UNDEFINED MUTATION]; assay: Induction of STING M155 mutant degradation in human THP-1 cells at 1 uM preincubated with MLN4924 for 2 hrs followed by compound addition and measured after 22 hrs by Western blotting analysis; type: cell-based
[13] = molecular target: Stimulator of interferon genes protein (Homo sapiens, UniProt Q86WV6, G230A/R293Q/R71H); assay: Inhibition of diABZI-induced STING HAQ mutant transfected in human THP1-Blue ISG cells preincubated with compound for 6 hrs followed by diABZI addition and measured after 18 hrs by QUANTI-Blue based microplate reader analysis; type: cell-based
[14] = Cytotoxicity against human THP1-Blue ISG cells assessed as inhibition of cell growth at 10 uM incubated for 24 hrs by MTS assay relative to control; type: toxicity, cell-based
[15] = molecular target: T3, Stimulator of interferon genes protein (Mus musculus) (UniProt Q3TBT3); assay: In vivo inhibition of cGAMP-induced STING activation in autoimmune disease female C57BL/6 mouse model assessed as decrease in cGAMP-induced serum INF-beta level at 10 mg/kg, sc pretreated with compound for 2 hrs followed by cGAMP addition and measured after 3 hrs by ELISA; type: functional, organism-based
T3 sequence (whole entry): T2 sequence (Q3TBT3 whole entry)

[16] = Metabolic stability in mouse plasma assessed as half life in presence of NADPH by LC-MS/MS analysis; type: ADME, cell-free

Chain of Stimulator of interferon genes protein (Homo sapiens), Q86WV6 [UNDEFINED MUTATION] (Q86WV6 whole entry, looked up, stated change not applied): as the sequence (Q86WV6 whole entry, looked up, change not shown) above
Chain of Stimulator of interferon genes protein (Homo sapiens, UniProt Q86WV6, G230A/R293Q/R71H) (Q86WV6 whole entry R71H/G230A/R293Q): as the sequence (Q86WV6 whole entry, looked up, change not shown) above, with R71H, G230A, R293Q counted along it

COc1ccc2c(c1)C(=O)N(c1ccc(C(C)(C)C)c(F)c1)C(c1cc3cc(-c4ccc(C(=O)Nc5ccc(O)c(NS(C)(=O)=O)c5)cc4)ccc3o1)C2C(N)=O (stereo unspecified)
Emax [1]: 92%
DC50 [2]: 310 nM
inhibition [3]: Active
Activity [4]: Active
Activity [5]: Active; Compound Showed Maximum Degradation
half-life at 10 µM [6]: > 1 h
IC50 [7]: 30 nM
IC50 [8]: 30 nM
Activity [9]: Active
inhibition [10]: Active
Activity [11]: Active; Compound Showed Maximum Degradation
Activity [12]: Active
IC50 [13]: 120 nM
inhibition at 24 h, 10 µM [14]: 34.4%
inhibition [15]: Active
half-life [16]: > 4 h
